Values joined by “and” are separate entries in the source; they are usually repeats but may differ in a detail not shown here. Identical values can stand only once.
Experiments:
[1] = target: T1, jack bean urease (JBU) (Canavalia ensiformis, UniProt P07374); test: Inhibition kinetic study (Lineweaver-Burk plots); assay type: biochemical; settings: for Lineweaver-Burk plot raw value (reciprocal velocity): Fig 3B JBU
T1 construct: Urease from jack bean (Canavalia ensiformis, JBU); purchased Sigma-Aldrich (St Louis, MO, USA) type III (catalogue number not given)
T1 sequence (P07374 whole entry, looked up): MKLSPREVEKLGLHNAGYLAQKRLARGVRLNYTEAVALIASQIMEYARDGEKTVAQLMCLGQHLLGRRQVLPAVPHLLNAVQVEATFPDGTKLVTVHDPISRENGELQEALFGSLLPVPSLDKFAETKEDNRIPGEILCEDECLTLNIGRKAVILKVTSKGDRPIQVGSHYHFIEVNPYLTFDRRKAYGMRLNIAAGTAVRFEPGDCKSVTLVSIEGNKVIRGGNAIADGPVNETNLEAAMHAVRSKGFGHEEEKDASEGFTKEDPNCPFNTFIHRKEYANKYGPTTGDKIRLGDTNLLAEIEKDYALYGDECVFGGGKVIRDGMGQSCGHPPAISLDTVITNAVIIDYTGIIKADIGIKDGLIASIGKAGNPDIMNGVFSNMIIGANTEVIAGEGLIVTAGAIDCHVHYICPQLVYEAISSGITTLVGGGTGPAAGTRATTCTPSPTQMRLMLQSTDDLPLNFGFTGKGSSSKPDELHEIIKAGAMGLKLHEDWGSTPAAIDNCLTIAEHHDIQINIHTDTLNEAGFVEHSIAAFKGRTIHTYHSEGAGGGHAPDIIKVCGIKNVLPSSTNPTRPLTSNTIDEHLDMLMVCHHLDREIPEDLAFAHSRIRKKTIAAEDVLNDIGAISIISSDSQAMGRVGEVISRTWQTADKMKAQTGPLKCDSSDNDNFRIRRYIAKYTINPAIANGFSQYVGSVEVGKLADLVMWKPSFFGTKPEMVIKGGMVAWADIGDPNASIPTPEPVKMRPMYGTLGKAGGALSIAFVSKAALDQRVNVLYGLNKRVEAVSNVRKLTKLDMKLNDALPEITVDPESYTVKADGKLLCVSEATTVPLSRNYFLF
Method: Michaelis constant KM and the maximum velocity vmax values were evaluated by means of Lineweaver—Burk plots, using the initial velocities at different urea concentrations (ranging from 0.3125 to 15 mM), in the absence or presence of 1.00, 0.50, and 0.25 mM Pal. The concentrations of HPU and JBU were both 0.25 mg/mL in the assays. The values were obtained by applying nonlinear regression to the Michaelis-Menten equation. All experiments were performed in triplicate.

[2] = target: T2, H. pylori urease (HPU) (Helicobacter pylori, UniProt P69996); test: Urease inhibition test (modified Berthelot method); assay type: biochemical
T2 construct: HPU was prepared as previously described; made in house
T2 sequence (P14916 whole entry): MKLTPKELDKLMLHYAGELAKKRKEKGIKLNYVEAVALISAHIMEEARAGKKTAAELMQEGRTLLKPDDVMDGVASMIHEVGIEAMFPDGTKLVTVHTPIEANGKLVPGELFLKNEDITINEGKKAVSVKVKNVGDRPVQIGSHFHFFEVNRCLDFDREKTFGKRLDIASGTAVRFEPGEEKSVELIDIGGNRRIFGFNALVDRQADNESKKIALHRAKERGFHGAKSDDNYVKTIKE
T2 sequence (P69996 whole entry): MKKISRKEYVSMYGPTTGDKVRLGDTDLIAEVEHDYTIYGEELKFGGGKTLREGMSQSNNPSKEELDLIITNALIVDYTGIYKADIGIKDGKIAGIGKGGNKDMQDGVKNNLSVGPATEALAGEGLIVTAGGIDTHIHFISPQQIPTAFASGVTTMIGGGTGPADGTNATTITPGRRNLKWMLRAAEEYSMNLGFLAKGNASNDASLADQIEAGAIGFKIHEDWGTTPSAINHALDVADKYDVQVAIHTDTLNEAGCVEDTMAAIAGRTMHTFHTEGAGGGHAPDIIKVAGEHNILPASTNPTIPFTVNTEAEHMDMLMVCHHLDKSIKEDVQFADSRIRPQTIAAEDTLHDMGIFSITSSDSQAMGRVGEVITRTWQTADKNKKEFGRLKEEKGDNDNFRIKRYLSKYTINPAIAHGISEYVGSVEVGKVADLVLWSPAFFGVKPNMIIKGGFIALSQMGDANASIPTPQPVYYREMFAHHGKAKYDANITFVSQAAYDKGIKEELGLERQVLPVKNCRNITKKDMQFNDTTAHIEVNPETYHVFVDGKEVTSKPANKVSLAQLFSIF
Method: HPU was prepared as previously described. The standard urease assay mixture included 150 mM urea in 20 mM HEPES buffer (pH 7.5). After addition of small aliquots of enzyme-containing solution of urease, the assay ran for 20 min. The enzymatic activity was evaluated spectrophotometrically by detecting the ammonia concentration at 595 nm according to the modified Berthelot (phenol-hypochlorite) method. Urease activity was estimated with JBU as a standard, the specific activity of HPU was determined to be 17.0 U/mg. One unit of urease activity was defined as 1 μmol of ammonia released per min at 25°C. The amount of protein was determined by commercial Bradford Protein Assay Kit with BSA as a standard. The amount of ammonia released was decided from a standard curve. The activity of uninhibited urease was defined as the control activity of 100%.
Reaction mixtures comprising 0.25 mg/mL HPU or JBU and different concentrations of Pal or AHA at the volume ratio of 1:1, were incubated at 37°C in 20 mM HEPES buffer (pH 7.5) in the absence of urea. The reactions were initiated by mixing the urease and the inhibitor. The preincubation mixture was withdrawn at 20 min and immediately transferred into the standard assay mixtures for urease residual activity determination. Inhibition rate (%) was calculated following the formula: I % = (1-activity with inhibitors/activity without inhibitors) × 100%. The IC50 was expressed as the concentration of inhibitor that decreased urease activity by 50% and calculated by plotting the percent of inhibition. The experiments were triply performed.

COc1cc2c(cc1OC)-c1cc3ccc(OC)c(OC)c3c[n+]1CC2 [Pal, Palmatine]
Lineweaver-Burk plot raw value (reciprocal velocity) ([1]; Pal=0.25 mM, 1/urea 0.0333333): 6.736 and 6.4288 and 6.3593
Lineweaver-Burk plot raw value (reciprocal velocity) ([1]; Pal=0.25 mM, 1/urea 0.0666667): 9.843 and 8.358 and 8.117
Lineweaver-Burk plot raw value (reciprocal velocity) ([1]; Pal=0.25 mM, 1/urea 0.266667): 12.8949 and 20.429 and 18.9394
Lineweaver-Burk plot raw value (reciprocal velocity) ([1]; Pal=0.25 mM, 1/urea 0.533333): 27.5862 and 33.6135 and 34.6021
Lineweaver-Burk plot raw value (reciprocal velocity) ([1]; Pal=0.25 mM, 1/urea 1.06667): 85.4701 and 51.1509 and 56.8182
Lineweaver-Burk plot raw value (reciprocal velocity) ([1]; Pal=0.50 mM, 1/urea 0.0333333): 6.923 and 7.202 and 9.225
Lineweaver-Burk plot raw value (reciprocal velocity) ([1]; Pal=0.50 mM, 1/urea 0.0666667): 8.807 and 9.298 and 11.1669
Lineweaver-Burk plot raw value (reciprocal velocity) ([1]; Pal=0.50 mM, 1/urea 0.133333): 18.6916 and 14.9813 and 17.4672
Lineweaver-Burk plot raw value (reciprocal velocity) ([1]; Pal=0.50 mM, 1/urea 0.266667): 37.037 and 24.1255 and 22.7273
Lineweaver-Burk plot raw value (reciprocal velocity) ([1]; Pal=0.50 mM, 1/urea 0.533333): 57.971 and 34.3053 and 43.4783
Lineweaver-Burk plot raw value (reciprocal velocity) ([1]; Pal=1.00 mM, 1/urea 0.0333333): 7.877 and 9.307 and 11.4613
Lineweaver-Burk plot raw value (reciprocal velocity) ([1]; Pal=1.00 mM, 1/urea 0.0666667): 11.4679 and 16.2867 and 12.6662
Lineweaver-Burk plot raw value (reciprocal velocity) ([1]; Pal=1.00 mM, 1/urea 0.133333): 16.1031 and 22.0507 and 21.7155
Lineweaver-Burk plot raw value (reciprocal velocity) ([1]; Pal=1.00 mM, 1/urea 0.266667): 25.0313 and 34.7222 and 40.9836
Lineweaver-Burk plot raw value (reciprocal velocity) ([1]; Pal=1.00 mM, 1/urea 0.533333): 40.4858 and 35.0263 and 56.6572
type of urease inhibition ([1]; JBU, Lineweaver-Burk): noncompetitive
IC50 [2]: 530 ± 10 µM
Residual activity ([2]; Fig 2A HPU, Pal 0.0149062 mM, replicates): 97.2774% and 99.8185%
Residual activity ([2]; Fig 2A HPU, Pal 0.0298125 mM, replicates): 98.3238% and 98.6586%
Residual activity ([2]; Fig 2A HPU, Pal 0.059625 mM, replicates): 95.8144% and 91.8003%
Residual activity ([2]; Fig 2A HPU, Pal 0.11925 mM, replicates): 84.6333% and 83.9334%
Residual activity ([2]; Fig 2A HPU, Pal 0.2385 mM, replicates): 71.2237% and 68.6838%
Residual activity ([2]; Fig 2A HPU, Pal 0.477 mM, replicates): 44.3368% and 41.1296%
Residual activity ([2]; Fig 2A HPU, Pal 0.954 mM, replicates): 18.2056% and 23.6712%
Residual activity ([2]; Fig 2C HPU, head prints Pal 0.00755209 mM, replicates): 104.061% and 86.9419%
Residual activity ([2]; Fig 2C HPU, head prints Pal 0.0151042 mM, replicates): 98.3628% and 84.9736%
Residual activity ([2]; Fig 2C HPU, head prints Pal 0.0302084 mM, replicates): 80.4878% and 87.2209% and 66.9067%
Residual activity ([2]; Fig 2C HPU, head prints Pal 0.0604167 mM, replicates): 64.023% and 48.6958%
Residual activity ([2]; Fig 2C HPU, head prints Pal 0.120833 mM, replicates): 34.9663% and 29.6848%
Residual activity ([2]; Fig 2C HPU, head prints Pal 0.241667 mM, replicates): 20.774% and 15.3785%
remaining activity at 14.9062 µM ([2]; read-out: Residual activity, Fig 2A HPU, Pal 0.0149062 mM, replicates): 98.5%
remaining activity at 29.8125 µM ([2]; read-out: Residual activity, Fig 2A HPU, Pal 0.0298125 mM, replicates): 92%
remaining activity at 59.625 µM ([2]; read-out: Residual activity, Fig 2A HPU, Pal 0.059625 mM, replicates): 88%
remaining activity at 119.25 µM ([2]; read-out: Residual activity, Fig 2A HPU, Pal 0.11925 mM, replicates): 77.1%
remaining activity at 238.5 µM ([2]; read-out: Residual activity, Fig 2A HPU, Pal 0.2385 mM, replicates): 66.8%
remaining activity at 477 µM ([2]; read-out: Residual activity, Fig 2A HPU, Pal 0.477 mM, replicates): 49.6%
remaining activity at 954 µM ([2]; read-out: Residual activity, Fig 2A HPU, Pal 0.954 mM, replicates): 24.2%
remaining activity at 7.55209 µM ([2]; read-out: Residual activity, Fig 2C HPU, head prints Pal 0.00755209 mM, replicates): 94.8%
remaining activity at 15.1042 µM ([2]; read-out: Residual activity, Fig 2C HPU, head prints Pal 0.0151042 mM, replicates): 92.1%
remaining activity at 60.4167 µM ([2]; read-out: Residual activity, Fig 2C HPU, head prints Pal 0.0604167 mM, replicates): 56.1%
remaining activity at 120.833 µM ([2]; read-out: Residual activity, Fig 2C HPU, head prints Pal 0.120833 mM, replicates): 31%

— article PMC5207512, “Inhibition of Helicobacter pylori and Its Associated Urease by Palmatine: Investigation on the Potential Mechanism” (PLoS ONE, 2017)
